Reference: patent US12612412B2, “Antiviral heterocyclic compounds” (Enanta Pharmaceuticals, Inc., priority 2021, dated 2026)
Like-named read-outs stand apart in the source and are kept apart here.

Tests used:
[1] = test system: genotype A, "Long" strain RSV; assay: RSV-A assay (CPE protection in Hep-2 cells, ATPlite readout); assay type: cell-based, Human respiratory syncytial virus (HRSV); conditions: MOI 0.1, CPE protection
Procedure, shortened: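 Hep-2, 8,000 cells/well, MOI 0.1 (PFU- or TCID50-based); 2-fold compound series, duplicates; 5 d incubation; ATPlite luminescence readout; EC50.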

[2] = test system: HMPV clinical isolate TN/1501/A1; assay: HMPV antiviral assay Method-B (clinical isolate TN/1501/A1 in LLC-MK2 cells, ATP-Lite readout); assay type: cell-based, Human metapneumovirus (HMPV); conditions: human metapneumovirus, LLC-MK2, 144 h, hMPV WT1501 (clinical isolate TN/1501/A1), 6 days
Procedure, shortened: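 EC50 derived by four-parameter logistic fit of percent cell health, measured by ATP-Lite luminescence and normalised to virus-only and uninfected-cell controls. Compounds run in duplicate from 10 μM top, 3-fold, 10 points. Infection: LLC-MK2 cells, MOI 0.014, 2 μg/mL final TPCK-trypsin, serum-free, 6 days at 37° C.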

[3] = human respiratory syncytial virus, RSV-A Long strain, read-out: Human RSV-A (“Long”) EC50
[4] = human respiratory syncytial virus, genotype A “Long” strain RSV, read-out: Human RSV-A (“Long”)

## COc1cc(C(=O)NC[C@](O)(c2cc3c(c(-c4ccc(F)cc4Cl)n2)OC[C@]3(C)C(N)=O)C2CC2)cc2cn(C3CC3)nc12 [Example 872]
[1]; [3]
  EC50: < 200 nM
[2]
  EC50: < 500 nM

## COc1cc(C(=O)NC[C@](O)(c2cc3c(c(-c4ccc(C(F)(F)F)s4)n2)OC[C@]3(C)C(N)=O)C(F)(F)F)cc2cn(C3CC3)nc12 [Example 994]
[1]; [3]
  EC50: < 200 nM
[2]
  EC50: < 500 nM

## COc1cc(C(=O)NCC(O)(c2cc3c(c(-c4cc(F)c(F)c(F)c4)n2)OC[C@]3(C)C(N)=O)C(F)(F)F)cc2cn(C3CC3)nc12 (stereo partly shown) [Example 916]
[1]; [3]
  EC50: < 200 nM
[2]
  EC50: < 500 nM

## COc1cc(C(=O)NC[C@](O)(c2cc3c(c(-c4ccc(OC(F)F)c(F)c4)n2)OC[C@]3(C)C(N)=O)C(F)(F)F)cc2cn(C3CC3)nc12 [Example 920]
[1]; [3]
  EC50: < 200 nM
[2]
  EC50: < 500 nM

## COc1cc(C(=O)NC[C@](O)(c2nc(-c3ccc4c(c3)OC(F)(F)O4)c3c(c2F)[C@@](C)(C(N)=O)CO3)C2CC2)cc2cn(C3(F)CC3)nc12 [Example 859]
[1]; [3]
  EC50: < 200 nM
[2]
  EC50: < 500 nM

## COc1cc(C(=O)NC[C@](O)(c2cc3c(c(-c4ccc(F)cc4)n2)OC[C@@]3(C(N)=O)C(F)F)C2CC2)cc2cn(C3CC3)nc12 [Example 1023]
[1]; [3]
  EC50: < 200 nM
[2]
  EC50: < 500 nM

## C[C@]1(C(N)=O)COc2c1cc([C@@](O)(CNC(=O)c1cc(Cl)c3nn(C4CC4)cc3c1)C1CC1)nc2-c1csc2c(F)cccc12 [Example 622]
[1]; [4]
  EC50: < 200 nM
[2]
  EC50: < 500 nM

## C[C@]1(C(N)=O)COc2c1cc([C@@](O)(CNC(=O)c1cc(OCC3CC3)c3nn(C4(F)CC4)cc3c1)C(F)(F)F)nc2-c1ccc(F)cc1 [Example 877]
[1]; [3]
  EC50: < 200 nM
[2]
  EC50: < 500 nM

## COc1cc(C(=O)NC[C@](O)(c2cc3c(c(-c4ccc(F)cc4Cl)n2)OC[C@]3(C)C(N)=O)C2(F)CC2)cc2cn(C3CC3)nc12 [Example 732]
[1]; [4]
  EC50: < 200 nM
[2]
  EC50: < 500 nM

## C[C@]1(C(N)=O)COc2c1cc([C@@](O)(CNC(=O)c1cc(F)c3nc(N)sc3c1)C1CC1)nc2-c1ccc(F)c(Cl)c1 [Example 704]
[1]; [4]
  EC50: < 200 nM
[2]
  EC50: < 500 nM

## Cc1cnc2c(OC(F)F)cc(C(=O)NC[C@](O)(c3cc4c(c(-c5cc(F)c(Cl)cc5F)n3)OC[C@]4(C)C(N)=O)C3CC3)cc2c1 [Example 1183]
[1]; [3]
  EC50: < 200 nM
[2]
  EC50: < 500 nM

## COc1cc(C(=O)NC[C@](O)(c2cc3c(c(-c4cc(Cl)c(F)cc4F)n2)OC[C@]3(C)C(N)=O)C(F)(F)F)cc2cn(C(F)F)nc12 [Example 614]
[1]; [4]
  EC50: < 200 nM
[2]
  EC50: > 500 nM

## COc1cc(C(=O)NC[C@](O)(c2cc3c(c(-c4cccc(Br)c4F)n2)OC[C@]3(C)C(N)=O)C2CC2)cc2cn(C(F)F)nc12 [Example 1098]
[1]; [3]
  EC50: < 200 nM
[2]
  EC50: < 500 nM

## COc1cc(C(=O)NC[C@](O)(c2cc3c(c(-c4ccc(F)c(F)c4)n2)OC[C@]3(C)C(N)=O)C(F)(F)F)cc2cn(C3CC3)nc12 [Example 985]
[1]; [3]
  EC50: < 200 nM
[2]
  EC50: < 500 nM

## COc1cc(C(=O)NC[C@](O)(c2nc(-c3ccc4c(c3)OC(F)(F)O4)c3c(c2F)[C@@](C)(C(N)=O)CO3)C2CC2)cc2cc(Cl)c(C)nc12 [Example 861]
[1]; [3]
  EC50: < 200 nM
[2]
  EC50: < 500 nM

## Cc1nc2c(OC3CC3)cc(C(=O)NC[C@](O)(c3cc4c(c(-c5ccc(F)c(F)c5F)n3)OC[C@]4(C)C(N)=O)C3CC3)cc2cc1Cl [Example 530]
[1]; [4]
  EC50: < 200 nM
[2]
  EC50: < 500 nM

## COc1cc(-c2nc([C@@](O)(CNC(=O)c3cc(OC)c4nn(C5CC5)cc4c3)C(F)(F)F)cc3c2OC[C@]3(C)C(N)=O)ccc1Cl [Example 934]
[1]; [3]
  EC50: < 200 nM
[2]
  EC50: > 500 nM

## COc1cc(C(=O)NC[C@](O)(c2cc3c(c(-c4ccc(F)cc4Cl)n2)OC[C@]3(C)C(N)=O)C2CC2)cc2cn(C3(Cl)CC3)nc12 [Example 844]
[1]; [3]
  EC50: < 200 nM
[2]
  EC50: < 500 nM

## COc1cc(C(=O)NC[C@](O)(c2cc3c(c(-c4ccccc4F)n2)OC[C@]3(C)C(N)=O)C(F)(F)F)cc2cn(C3CC3)nc12 [Example 911]
[1]; [3]
  EC50: < 200 nM
[2]
  EC50: < 500 nM

## COc1cc(C(=O)NC[C@](O)(c2cc3c(c(-c4cc(Cl)c(F)cc4F)n2)OC[C@]3(C)C(N)=O)C2CC2)cc2cc(Br)cnc12 [Example 664]
[1]; [4]
  EC50: < 200 nM
[2]
  EC50: < 500 nM

## COc1cc(C(=O)NC[C@](O)(c2cc3c(c(-c4ccc(F)c(F)c4Cl)n2)OC[C@]3(C)C(N)=O)C2(F)CC2)cc2cn(C3CC3)nc12 [Example 745]
[1]; [4]
  EC50: < 200 nM
[2]
  EC50: < 500 nM

## COc1cc(C(=O)NC[C@](O)(c2cc3c(c(-c4ccc(F)c(Cl)c4)n2)OCC3(CF)C(N)=O)C(F)(F)F)cc2cn(C3CC3)nc12 (stereo partly shown) [Example 1050]
[1]; [3]
  EC50: < 200 nM
[2]
  EC50: < 500 nM

## Cc1cnc2c(OC(F)F)cc(C(=O)NC[C@](O)(c3cc4c(c(-c5ccc(F)c(Cl)c5)n3)OC[C@@]4(C(N)=O)C(F)F)C3CC3)cc2c1 [Example 1029]
[1]; [3]
  EC50: < 200 nM
[2]
  EC50: < 500 nM

## COc1cc(C(=O)NC[C@](O)(c2cc3c(c(-c4ccc5c(c4)OC(F)(F)O5)n2)OC[C@@]3(C(N)=O)C(F)F)C2CC2)cc2cc(C3CC3)nn12 [Example 1013]
[1]; [3]
  EC50: < 200 nM
[2]
  EC50: < 500 nM

## COc1cc(C(=O)NC[C@](O)(c2cc3c(c(-c4ccc(F)cc4)n2)OC[C@@]3(C(N)=O)C(F)F)C(F)(F)F)cc2cc(Cl)c(C)nc12 [Example 1001]
[1]; [3]
  EC50: < 200 nM
[2]
  EC50: < 500 nM

## COc1cc(C(=O)NC[C@](O)(c2cc3c(c(-c4cc(Cl)c(F)cc4F)n2)OC[C@]3(C)C(N)=O)C2(F)CC2)cc2cn(C(F)F)nc12 [Example 766]
[1]; [4]
  EC50: < 200 nM
[2]
  EC50: < 500 nM

## COc1ccc(C(=O)NC[C@](O)(c2cc3c(c(-c4ccc(F)cc4)n2)OC[C@]3(C)C(N)=O)C(F)(F)F)c2[nH]ccc12 [Example 696]
[1]; [4]
  EC50: < 200 nM
[2]
  EC50: > 500 nM

## C[C@]1(C(N)=O)COc2c1cc([C@@](O)(CNC(=O)c1cc(OC3CC3)n3nc(C4CC4)cc3c1)C(F)(F)F)nc2-c1csc2c(F)cccc12 [Example 597]
[1]; [4]
  EC50: < 200 nM
[2]
  EC50: > 500 nM

## C#Cc1ccc(-c2nc([C@@](O)(CNC(=O)c3cc(OC)c4nn(C5CC5)cc4c3)C(F)(F)F)cc3c2OC[C@]3(C)C(N)=O)cc1 [Example 982]
[1]; [3]
  EC50: < 200 nM
[2]
  EC50: > 500 nM

## COc1cc(C(=O)NC[C@](O)(c2cc3c(c(-c4c(F)ccc(Cl)c4F)n2)OC[C@]3(C)C(N)=O)C2CC2)cc2cn(C(F)F)nc12 [Example 1164]
[1]; [3]
  EC50: < 200 nM
[2]
  EC50: < 500 nM

## CC[C@]1(C(N)=O)COc2c1cc([C@@](O)(CNC(=O)c1cc(OC)c3nn(C4CC4)cc3c1)C(F)(F)F)nc2-c1ccc(F)cc1 [Example 573]
[1]; genotype A “Long” strain RSV, read-out: Human RSV-A (“Long”)
  EC50: < 200 nM
[2]
  EC50: < 500 nM

## C[C@]1(C(N)=O)COc2c1cc([C@@](O)(CNC(=O)c1cc(OC3CC3)c3nc(C4CC4)cn3c1)C1CC1)nc2-c1ccc(F)c(Cl)c1F [Example 560]
[1]; [4]
  EC50: < 200 nM
[2]
  EC50: < 500 nM

## COc1cc(C(=O)NC[C@](O)(c2cc3c(c(-c4ccc5c(c4)OC(F)(F)O5)n2)OC[C@]3(C)C(N)=O)C2(F)CC2)cc2cc(Cl)c(C)nc12 [Example 717]
[1]; [4]
  EC50: < 200 nM
[2]
  EC50: < 500 nM

## COc1cc(C(=O)NC[C@](O)(c2cc3c(c(-c4ccc(F)cc4)n2)OC[C@]3(C)C(N)=O)C(F)(F)F)cc2cc(Br)c(Cl)nc12 [Example 1090]
[1]; [3]
  EC50: < 200 nM
[2]
  EC50: > 500 nM

## COc1cc(C(=O)NC[C@](O)(c2cc3c(c(-c4cc(Cl)c(F)cc4F)n2)OC[C@]3(C)C(N)=O)C2(F)CC2)cc2cc(Cl)c(C)nc12 [Example 760]
[1]; [4]
  EC50: < 200 nM
[2]
  EC50: < 500 nM

## COc1cc(C(=O)NC[C@](O)(c2cc3c(c(-c4cc(Cl)c(F)cc4F)n2)OC[C@]3(C)C(N)=O)C(F)(F)F)cc2cc(Cl)c(C)nc12 [Example 620]
[1]; [4]
  EC50: < 200 nM
[2]
  EC50: < 500 nM

## Cc1cnc2c(Cl)cc(C(=O)NC[C@](O)(c3cc4c(c(-c5cccc(Br)c5F)n3)OC[C@]4(C)C(N)=O)C3CC3)cc2c1 [Example 1091]
[1]; [3]
  EC50: < 200 nM
[2]
  EC50: < 500 nM

## COc1cc(C(=O)NC[C@](O)(c2cc3c(c(-c4cnc(C#N)c(Cl)c4)n2)OC[C@]3(C)C(N)=O)C(F)(F)F)cc2cn(C(F)F)nc12 [Example 582]
[1]; [4]
  EC50: < 200 nM
[2]
  EC50: > 500 nM

## COc1cc(C(=O)NC[C@](O)(c2cc3c(c(-c4cc(Cl)c(F)cc4F)n2)OC[C@]3(C)C(N)=O)C(F)(F)F)cc2cn(C3CC3)nc12 [Example 952]
[1]; [3]
  EC50: < 200 nM
[2]
  EC50: < 500 nM

## COc1cc(C(=O)NC[C@](O)(c2cc3c(c(-c4cc(F)c(F)c(Cl)c4)n2)OC[C@]3(C)C(N)=O)C(F)(F)F)cc2cn(C(F)F)nc12 [Example 783]
[1]; [4]
  EC50: < 200 nM
[2]
  EC50: < 500 nM

## COc1cc(C(=O)NC[C@](O)(c2cc3c(c(-c4ccc(F)cc4)n2)OC[C@]3(CF)C(N)=O)C2CC2)cc2cc(C3CC3)nn12 [Example 1060]
[1]; [3]
  EC50: < 200 nM
[2]
  EC50: < 500 nM

## COc1cc(C(=O)NC[C@](O)(c2cc3c(c(-c4ccc5cn(C(F)F)nc5c4)n2)OC[C@]3(C)C(N)=O)C(F)(F)F)cc2cn(C3CC3)nc12 [Example 941]
[1]; [3]
  EC50: > 200 nM
[2]
  EC50: > 500 nM

## COc1cc(C(=O)NC[C@](O)(c2cc3c(c(-c4ccc5nn(C(F)F)cc5c4)n2)OC[C@]3(C)C(N)=O)C(F)(F)F)cc2cn(C3CC3)nc12 [Example 938]
[1]; [3]
  EC50: > 200 nM
[2]
  EC50: > 500 nM

## COc1cc(C(=O)NC[C@](O)(c2cc3c(c(-c4cc(Cl)c(F)cc4F)n2)OC[C@]3(C)C(N)=O)C2CC2)cc2cc(Cl)c(C)nc12 [Example 666]
[1]; [4]
  EC50: < 200 nM
[2]
  EC50: < 500 nM
